Consider 11 molecules from patent US8680282B2, “Cyclic inhibitors of carnitine palmitoyltransferase and treating cancer” (University Health Network, priority 2007, dated 2014).

Test in all cases: Cancer cell growth inhibition, SRB assay
The subject of one experiment is Hs578T. The class given is cell-based. The following applies: Homo sapiens, Hs-578T, 144 h; Hs578T (Breast); SRB at Day 6; triplicate.
The next experiment has as its system H358. The class given is cell-based, human. The following applies: SRB at Day 6; for GI50: Homo sapiens, NCI-H358, 144 h, H358 (Lung), triplicate; for Percentage of Growth Inhibition: H358, at 10 μM, NE = no activity at 10 micromolar. More on the design: Percentage of Growth Inhibition: unit not given here. The protocol:
(§1) Human cancer cells (MCF-7, H358, H460, HCT116 p53^+/+, HCT116 p53^−/−, A172, PC-3, DU-145 and SW626) were maintained in DMEM medium containing 10% Fetal Bovine Serum (FBS) (Invitrogen, Burlington, ON, Canada) and normal cells HMEC, 184A1, NHBE and PrEC were cultured in MEGM, MEGM plus transferring and cholera toxin, BEGM and PrEGM supplemented with various growth factors (Cambrex, Charles city, Iowa, USA), respectively.
(§2) Compounds of Examples S1 to S30, and 4-(carboxymethyl)-4-(6-(3-hexyloxy)phenoxy)hexanoamido)-1,1-dimethylpiperidinium 2,2,2-trifluoroactate (“Compound A”) were tested in this example. Each of the tested compounds was dissolved in DMSO and further diluted in cell culture medium for the experiments performed. Cells were seeded into 96-well plates with 1,500-5,000 cells/well according to cell growth rate. After 24 h, DMEM medium containing 10% FBS were changed to DMEM containing 3% FBS for cancer cells. The compound was added into the cell culture at the indicated concentrations, and the final concentration of DMSO was adjusted to a final concentration of 0.1%. Cell viability was assessed by Sulforhodamine B (SRB) assay at Day 6.
(§3) Sulforhodamine B (SRB) (Sigma, Oakville, ON, Canada) is a water-soluble dye that binds to the basic amino acids of the cellular proteins. Thus, colorimetric measurement of the bound dye provides an estimate of the total protein mass that is related to the cell number. The cells were fixed in situ by gently aspirating off the culture media and adding 50 ul of cold 10% Tri-chloroacetic Acid (TCA) per well and incubated at 4° C. for 30-60 min. The plates were washed five times with water and allowed to air dry for 5 min. 50 ul of 0.4% (w/v) SRB dissolved in 1% (v/v) acetic acid were added into each well, plates were then incubated at RT for 30 min for staining, washed four times with 1% acetic acid to remove any unbound dye and then allowed to air dry for 5 min. Stain was solubilized with 100 ul of 10 mM Tris pH 10.5 per well. Absorbance was read at 570 nm on a spectrophotometer. GI50 (compound concentration required for 50% of growth inhibition) was calculated using GraphPad Prism 4.0 software (GraphPad Software, Inc., San Diego, Calif., USA). Growth inhibition (%) was determined as percentage of cells remaining compared to the DMSO-treated cells as control.

The test system of another experiment is A172. The class given is cell-based, human. The following applies: SRB at Day 6; for GI50: Homo sapiens, A 172, 144 h, A172 (Brain), triplicate; for Percentage of Growth Inhibition: A172, at 10 μM, NE = no activity at 10 micromolar. The protocol:
as §1, §2, §3

The next experiment deals with PC-3. The class given is cell-based, human. The following applies: SRB at Day 6; for GI50: Homo sapiens, 144 h, PC-3 (Prostate), triplicate; for Percentage of Growth Inhibition: PC-3, at 10 μM, NE = no activity at 10 micromolar. The method, then:
as §1, §2, §3

For the next experiment, the system named is HCT-15. The class given is cell-based, human. More on the design: Percentage of Growth Inhibition: scale not given here. To be noted: SRB at Day 6; for GI50: Homo sapiens, 144 h, HCT-15 (Colon), triplicate; for Percentage of Growth Inhibition: HCT-15, at 10 μM, NE = no activity at 10 micromolar.
A further experiment has as its system SW480. The class given is cell-based, human. To be noted: SRB at Day 6; for GI50: Homo sapiens, 144 h, SW480 (Colon), triplicate; for Percentage of Growth Inhibition: SW480, at 10 μM, NE = no activity at 10 micromolar.
In the next experiment the test system is SW620. The class given is cell-based, human. The following applies: SRB at Day 6; for GI50: Homo sapiens, SW-620, 144 h, SW620 (Colon), triplicate; for Percentage of Growth Inhibition: SW620, at 10 μM, NE = no activity at 10 micromolar. More on the design: Percentage of Growth Inhibition: scale not given here.
The test system of another experiment is MCF-7. The class given is cell-based, human. To be noted: SRB at Day 6; for GI50: Homo sapiens, MCF7, 144 h, MCF-7 (Breast), triplicate; for Percentage of Growth Inhibition: MCF-7, at 10 μM, NE = no activity at 10 micromolar. More on the design: Percentage of Growth Inhibition: scale not given here. The protocol: as §1, §2, §3
The subject of the next experiment is SW626. The class given is cell-based, human. More on the design: Percentage of Growth Inhibition: scale not given here. The following applies: SRB at Day 6; for GI50: Homo sapiens, 144 h, SW626 (Ovarian), triplicate; for Percentage of Growth Inhibition: SW626, at 10 μM, NE = no activity at 10 micromolar. The method, then: as §1, §2, §3
Another experiment concerns Caov-3. The class given is cell-based. To be noted: Homo sapiens, 144 h; Caov-3 (Ovarian); SRB at Day 6; triplicate.

With `CCCCCCCCc1ccc(NS(=O)(=O)NC2(CC(=O)O)CCN(C)CC2)cc1` [Example S7, 4-(carboxymethyl)-1-methyl-4-(N-(4-octylphenyl)sulfamoylamino)-piperidinium 2,2,2-trifluoroacetate], the GI50 in the experiment with Hs578T is above 50 µM; in the experiment with H358 it was 20 µM; in the experiment on A172 it was 15 µM; in the experiment with PC-3 it was 6 µM; with HCT-15 it was 80 µM; in the experiment with SW480, 68 µM. Also, the GI50 in the experiment with SW620 is above 50 µM; in the experiment with MCF-7, 27 µM; in the experiment with SW626, above 50 µM; in the experiment with Caov-3 it was 22 µM.

In the case of `CCCCCCCCc1ccc(NC(=O)NC2(CC(=O)O)CCC[NH+](C)C2)cc1` (centres unmarked) [Example S9, 3-(Carboxymethyl)-1-methyl-3-(3-(4-octylphenyl)ureido)piperidinium 2,2,2-trifluoroacetate], the “Percentage of Growth Inhibition” value with PC-3 was 0.2585%; with SW480, 0.00756%; in the experiment on SW620, 0.04904%; in the experiment with MCF-7 it was 0.02731%; in the experiment on SW626, 0.02424%.

`C[N+]1(C)CCC(CC(=O)O)(NC(=O)c2ccc(CCc3ccccc3)o2)CC1` [Example S5, 4-(Carboxymethyl)-1,1-dimethyl-4-(5-phenethylfuran-2-carboxamido)-piperidinium 2,2,2-trifluoroacetate]: the “Percentage of Growth Inhibition” value with H358 is on record as 0.08927; in the experiment with A172, 0.01342%; in the experiment with SW620, 0.05572%; with MCF-7 it was 0.02312%; in the experiment with SW626, 0.03032%.

Take `CCCCCc1ccc(S(=O)(=O)NC2(CC(=O)O)CCN(C)CC2)cc1` [Example S3, 4-(carboxymethyl)-1-methyl-4-(4-pentylphenylsulfonamido)piperidinium 2,2,2-trifluoroacetate]: the “Percentage of Growth Inhibition” value is given as 0.4638 in the experiment with H358; 0.06515% in the experiment on HCT-15; 0.0383% with SW480; 0.03948% in the experiment with SW620; 0.007318% in the experiment on MCF-7.

Take `CCCCCc1ccc(S(=O)(=O)NC2(CC(=O)O)CC[N+](C)(C)C2)cc1` (centres unmarked) [Example S20, 3-(carboxymethyl)-1,1-dimethyl-3-(4-pentylphenylsulfonamido)-pyrrolidinium 2,2,2-trifluoroacetate]: the “Percentage of Growth Inhibition” value in the experiment with H358 came out at 0.2773; in the experiment with A172 it was 0.1176%; with SW480, 0.02596%; with SW620, 0.01263%; in the experiment on MCF-7, 0.2269%; in the experiment with SW626, 0.07399%.

Turning to `CCCCCCCCc1ccc(NC(=O)NC2(CC(=O)O)CCC[N+](C)(C)C2)cc1` (centres unmarked) [Example S10, 3-(carboxymethyl)-1,1-dimethyl-3-(3-(4-octylphenyl)ureido)-piperidinium 2,2,2-trifluoroacetate], the GI50 in the experiment with Hs578T worked out at 39 µM; in the experiment on H358, 1 µM; in the experiment with A172, 4.6 µM; in the experiment with PC-3 it was 0.9 µM; in the experiment on HCT-15, 16 µM; with SW480, 0.7 µM. The figures for the GI50 in the experiment on SW620, in the experiment on MCF-7 and in the experiment with SW626 were 2.5 µM, 5.1 µM and 2.7 µM, respectively.

In the case of `C[N+]1(C)CCC(CC(=O)O)(NC(=O)c2ccc(C#Cc3ccccc3)o2)CC1` [Example S6, 4-(Carboxymethyl)-1,1-dimethyl-4-(5-(phenylethynyl)furan-2-carboxamido)-piperidinium 2,2,2-trifluoroacetate], the “Percentage of Growth Inhibition” value with H358 is 0.1074; with A172, 0.05672%; in the experiment on PC-3 it was 0.03591%; with SW480 it was 0.03677%; in the experiment with SW620, 0.05805%; in the experiment on MCF-7, 0.03714%. The “Percentage of Growth Inhibition” value in the experiment on SW626 came to 0.2084%.

Turning to `CCCCCCCCc1ccc(N(C)S(=O)(=O)NC2(CC(=O)O)CCC[N+](C)(C)C2)cc1` (centres unmarked) [Example S30, 3-(carboxymethyl)-1,1-dimethyl-3-(N-methyl-N-(4-octylphenyl)-sulfamoylamino)piperidinium 2,2,2-trifluoroacetate], the GI50 in the experiment on Hs578T came to 3 µM; with H358, 2.9 µM; with A172, 0.6 µM; with PC-3 it was 0.7 µM; in the experiment on HCT-15, 14 µM; with SW480, 3.5 µM. The GI50 in the experiment with SW620 was found to be 3.5 µM; with MCF-7 it was 3.1 µM; with SW626, 21 µM.

As to `CCCCCCCCCCc1ccc(C(=O)NC2(CC(=O)O)CC[N+](C)(C)C2)cc1` (centres unmarked) [Example S22, 3-(Carboxymethyl)-3-(4-decylbenzamido)-1,1-dimethylpyrrolidinium 2,2,2-trifluoroacetate], the “Percentage of Growth Inhibition” value turned out to be 0.8129 in the experiment on H358; 0.1249% with A172; 0.4436% in the experiment on PC-3; 0.07473% with HCT-15; 0.6141% in the experiment with SW480; 0.2089% with SW620. Also, the “Percentage of Growth Inhibition” value with MCF-7 amounted to 0.06486%; in the experiment with SW626, 0.2198%.

For the molecule `O=C(O)CC1(NC(=O)c2ccc(C#Cc3ccccc3)o2)CNC1` [Example S26, 3-(carboxymethyl)-3-(5-(phenylethynyl)furan-2-carboxamido)-azetidinium 2,2,2-trifluoroacetate], the “Percentage of Growth Inhibition” value with H358 is 0.1437; with SW480, 0.04449%; in the experiment with SW620, 0.0551%; with MCF-7, 0.1403%; in the experiment with SW626 it was 0.07378%.

On to `CCCCCCCCCCc1ccc(C(=O)NC2(CC(=O)O)CCN(C)C2)cc1` (centres unmarked) [Example S21, 3-(carboxymethyl)-3-(4-decylbenzamido)-1-methylpyrrolidinium 2,2,2-trifluoroacetate], for which the “Percentage of Growth Inhibition” value is reported as 0.6802 in the experiment on H358; 0.1417% in the experiment with A172; 0.1562% in the experiment on PC-3; 0.04235% with HCT-15; 0.09568% with SW480; 0.07327% in the experiment with SW620. The entries for the “Percentage of Growth Inhibition” value with MCF-7 and with SW626 were 0.01838% and 0.154%, respectively.
